From paper PMC5996347, “2-Mercapto-Quinazolinones as Inhibitors of Type II NADH Dehydrogenase and Mycobacterium tuberculosis: Structure–Activity Relationships, Mechanism of Action and Absorption, Distribution, Metabolism, and Excretion Characterization” (ACS Infectious Diseases, 2018)

Columns and labels:
in vitro = in vitro ADME; settings: PAMPA, pH 7.4
Experimental: The permeability was performed using a 96-well precoated BD Gentest PAMPA plate (BD Biosciences, U.K.). Each well was divided into two chambers: donor and acceptor, separated by a lipid-oil-lipid trilayer constructed in a porous filter. The effective permeability, Pe, of the compound was measured at pH 7.4. Stock solutions (5 mM) of the compound were prepared in DMSO. The compound was then further diluted to 10 μM in phosphate buffered saline at pH 7.4. […] The compound dissolved in phosphate buffered saline was then added to the donor side of the membrane, and phosphate buffered saline without compound was added to the acceptor side. The PAMPA plate was left at room temperature for 5 h; after which time, an aliquot (100 μL) was then removed from both acceptor and donor compartments and mixed with acetonitrile (80 μL) containing an internal standard: donepezil at 50 ng/mL). The samples were centrifuged (10 min, 5 °C, 3270g) to sediment precipitated protein and sealed prior to UPLC-MS/MS analysis using a Quattro Premier XE (Waters Corp, USA). Pe was calculated as shown in the below equation. [drawing 2] where CA(t) = peak area of compound present in acceptor well at time (t) = 18 000 s; Cequi = [CD(t) × VD + CA(t) × VA]/(VD + VA); A = filter area; VD = donor well volume; VA = acceptor well volume; t = incubation time; CD(t) = peak area of compound present in donor well at time (t) = 18 000 s. Recovery of compound from donor and acceptor wells was calculated, and data was only accepted when recovery exceeded 70%.

[1] = assay type: in vitro ADME; settings: mouse, plasma
Experimental: In brief, a 96-well equilibrium dialysis apparatus was used to determine the free fraction in plasma for each compound (HT Dialysis LLC, Gales Ferry, CT). Membranes (12–14 kDaA cutoff) were conditioned in deionized water for 60 min, followed by conditioning in 80:20 deionized water/ethanol overnight and then rinsed in water and isotonic buffer before use. Mouse plasma from appropriate species was removed from the freezer and allowed to thaw on the day of experiment. Thawed plasma was then centrifuged (Allegra X12-R, Beckman Coulter, USA) and spiked with test compound (final concentration 10 μg/mL), and 150 μL aliquots (n = 3 replicate determinations) were loaded into the 96-well equilibrium dialysis plate. Dialysis against isotonic buffer (150 μL) was carried out for 5 h in a temperature controlled incubator at ca. 37 °C (Barworld scientific Ltd., UK) using an orbital microplate shaker at 100 rpm (Barworld scientific Ltd., UK). At the end of the incubation period, 50 μL aliquots of plasma or buffer were transferred into a 96-well deep plate and the composition in each well was balanced with control fluid (50 μL), such that the volume of buffer to plasma is the same. Sample extraction was performed by the addition of 200 μL of acetonitrile containing an appropriate internal standard. Samples were allowed to mix for 1 min and then centrifuged at 3000 rpm in 96-well blocks for 15 min (Allegra X12-R, Beckman Coulter, USA) after which 150 μL of supernatant was removed to 50 μL of water. All samples were analyzed by UPLC-MS/MS on a Quattro Premier XE Mass Spectrometer (Waters Corporation, USA). The unbound fraction was determined as the ratio of the peak area in buffer to that in plasma.

Question: Which Papp at 5 h, 10 μM (in vitro) does the source give for `O=C(CSc1nc2ccccc2c(=O)[nH]1)NC1CCCCC1` [Compound 1, N-Cyclohexyl-2-((4-oxo-3,4-dihydroquinazolin-2-yl)thio)acetamide] here?
Answer: 8.3 ×10⁻⁶ cm/s

Question: And the “PPB (% unbound)” value [1]?
Answer: 14 % unbound
